One assay deals with rat stroke model. The settings on record: cited from earlier work.
For assay [1], the system named is IL-1 beta-induced coronary stenosis. Conditions: porcine model, long term treatment; cited from earlier work.
The test system of the next assay is neointimal formation. The settings on record: rats, balloon injury model; cited from earlier work.
Assay [2] concerns congestive heart failure in Dahl salt-sensitive rats. The settings on record: cited from earlier work.
The subject of assay [3] is spontaneously hypertensive rat, renal hypertensive rat and deoxycortisone acetate salt hypertensive rat models. The settings on record: cited from earlier work.
A further assay deals with ROCK2 (Homo sapiens, UniProt O75116). The assay can be described thus: ROCK assay: phosphorylation of FITC peptide substrate, LABCHIP 3000 mobility shift. It is filed as biochemical. Conditions: 5 μM ATP, 1.5 μM peptide substrate; read-out: ROCK2 Activity (ROCK IC50 range). In outline:
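IC50 values come from curve-fitting percent kinase inhibition across a compound dilution series. The reaction is started with Rho kinase variant in HEPES pH 7.5 buffer with MgCl2, Brij-35 and DTT, with 5 μM ATP, 1.5 μM FITC-labelled peptide and under 2% DMSO. After EDTA quench, product and substrate are separated by microfluidic mobility shift.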

Where two headings read alike, the source gives them in different places.

The values below come from patent publication US9902702B2, “Spirocycloheptanes as inhibitors of rock” (BRISTOL-MYERS SQUIBB COMPANY, priority 2014, dated 2018).

Sequence of ROCK2 (O75116 whole entry, species assumed): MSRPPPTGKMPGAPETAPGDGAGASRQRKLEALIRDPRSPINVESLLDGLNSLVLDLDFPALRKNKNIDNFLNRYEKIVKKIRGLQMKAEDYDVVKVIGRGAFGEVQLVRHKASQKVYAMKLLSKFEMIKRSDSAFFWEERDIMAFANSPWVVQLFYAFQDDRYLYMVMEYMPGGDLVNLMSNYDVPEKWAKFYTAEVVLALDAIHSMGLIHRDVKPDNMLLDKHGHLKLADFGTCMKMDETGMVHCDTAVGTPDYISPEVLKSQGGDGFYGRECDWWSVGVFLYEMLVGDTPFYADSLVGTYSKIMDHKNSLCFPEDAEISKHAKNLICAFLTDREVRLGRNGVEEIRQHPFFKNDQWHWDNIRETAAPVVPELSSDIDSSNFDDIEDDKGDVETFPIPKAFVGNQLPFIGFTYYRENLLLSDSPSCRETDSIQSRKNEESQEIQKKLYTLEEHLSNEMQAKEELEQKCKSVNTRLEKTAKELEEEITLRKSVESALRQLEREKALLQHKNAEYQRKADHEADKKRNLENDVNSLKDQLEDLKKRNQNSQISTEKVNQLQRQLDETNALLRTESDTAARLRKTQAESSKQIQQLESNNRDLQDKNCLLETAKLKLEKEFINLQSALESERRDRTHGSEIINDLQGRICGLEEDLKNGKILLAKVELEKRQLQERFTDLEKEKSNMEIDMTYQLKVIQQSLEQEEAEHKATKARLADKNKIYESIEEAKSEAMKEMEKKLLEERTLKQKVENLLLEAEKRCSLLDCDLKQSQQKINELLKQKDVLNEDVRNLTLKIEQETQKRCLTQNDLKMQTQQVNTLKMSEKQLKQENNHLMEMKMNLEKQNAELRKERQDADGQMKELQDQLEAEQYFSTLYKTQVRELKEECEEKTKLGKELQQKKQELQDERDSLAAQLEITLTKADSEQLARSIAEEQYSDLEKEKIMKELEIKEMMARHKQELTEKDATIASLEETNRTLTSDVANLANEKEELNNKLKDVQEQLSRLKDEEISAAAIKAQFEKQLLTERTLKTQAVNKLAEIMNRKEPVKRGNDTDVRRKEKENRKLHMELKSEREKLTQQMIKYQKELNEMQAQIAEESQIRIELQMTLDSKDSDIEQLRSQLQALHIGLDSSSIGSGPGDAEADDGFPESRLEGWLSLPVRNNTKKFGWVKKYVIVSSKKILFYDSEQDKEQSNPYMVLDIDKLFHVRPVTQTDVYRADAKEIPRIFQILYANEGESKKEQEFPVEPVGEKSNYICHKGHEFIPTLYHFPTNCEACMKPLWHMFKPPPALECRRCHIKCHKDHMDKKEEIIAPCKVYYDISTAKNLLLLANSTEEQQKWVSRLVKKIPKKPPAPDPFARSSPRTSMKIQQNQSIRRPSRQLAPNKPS

On to `O=S(=O)(c1cccc2cnccc12)N1CCCNCC1` [fasudil], for which the “infarct size and neurologic deficit” value in the assay on rat stroke model was “reduce both the infarct size and neurologic deficit”. In assay [1], the coronary constrictive remodeling result was “promote a regression of coronary constrictive remodeling” and the coronary stenosis entry is listed as “progressively reduce coronary stenosis”.

Regarding `C[C@@H](N)[C@H]1CC[C@H](C(=O)Nc2ccncc2)CC1` [Example Y-27632], the neointimal formation entry in the assay with neointimal formation was “inhibited neointimal formation”. In addition, the “ventricular hypertrophy, fibrosis and function” value in assay [2] was “improve ventricular hypertrophy, fibrosis and function”. The blood pressure result in assay [3] (control rats) was “only a minor effect on blood pressure”; in assay [3] (three rat models of hypertension), “significantly decrease blood pressure”.

Regarding `O=C(NC1CC2(C1)CC(c1n[nH]c(=O)c3ccccc13)C2)c1ccn(-c2ccccc2)n1` (centres unmarked) [Example 10, N-[6-(4-oxo-3,4-dihydrophthalazin-1-yl)spiro[3.3]heptan-2-yl]-1-phenyl-1H-pyrazole-3-carboxamide], the IC50 (in general, the midpoint of a concentration-inhibition curve) on ROCK2 lay in the range of 100 to 2100 nM.

As for `CC(C)(O)Cn1nc(C(=O)NC2CC3(C2)CC(c2n[nH]c(=O)c4ccccc24)C3)c2ccc(-c3ccccc3C#N)cc21` (centres unmarked) [Example 160, 6-(2-cyanophenyl)-1-(2-hydroxy-2-methylpropyl)-N-((αR)-6-(4-oxo-3,4-dihydrophthalazin-1-yl)spiro[3.3]heptan-2-yl)-1H-indazole-3-carboxamide], the IC50 on ROCK2 lay in the range of 0.2 to 2 nM.

With `[H][C@]1(c2n[nH]c(=O)c3ccccc32)C[C@]2(C[C@@H](NC(=O)c3cnc4cc(N5CCN(C)CC5)ccn34)C2)C1` (some centres unmarked) [Example 378], the IC50 on ROCK2 was in the range of 0.2 to 2 nM.

For `O=C(NC1CC2(C1)CC(c1n[nH]c(=O)c3ccccc13)C2)c1cnn2ccncc12` [Example 467, N-((aR)-6-(4-oxo-3,4-dihydrophthalazin-1-yl)spiro[3.3]heptan-2-yl)pyrazolo[1,5-a] pyrazine-3-carboxamide], the half-maximal inhibitory concentration (IC50) at ROCK2 lay in the range of 15.1 to 100 nM.

As for `[H][C@]1(c2n[nH]c(=O)c3ccccc32)C[C@]2(C[C@@H](NC(=O)c3ccc(OC(C)C)c(C#N)c3)C2)C1` (stereo partly drawn) [Example 353, 3-cyano-4-isopropoxy-N-((aR)-6-(4-oxo-3,4-dihydrophthalazin-1-yl)spiro[3.3]heptan-2-yl)benzamide], the IC50 at ROCK2 was 5.1 to 15 nM.

For `COCc1ccc2c(C(=O)NC3CC4(C3)CC(c3n[nH]c(=O)c5ccccc35)C4)cnn2c1` [Example 209, 6-(methoxymethyl)-N-((aR)-6-(4-oxo-3,4-dihydrophthalazin-1-yl)spiro[3.3]heptan-2-yl)pyrazolo[1,5-a]pyridine-3-carboxamide], the IC50 at ROCK2 fell in the range of 5.1 to 15 nM.

Regarding `O=C(NC1CC2(C1)CC(c1n[nH]c(=O)c3ccccc13)C2)c1cnn2cc(-n3ccnc3)ccc12` (stereo not drawn) [Example 176, 6-(1H-imidazol-1-yl)-N-((αR)-6-(4-oxo-3,4-dihydrophthalazin-1-yl)spiro[3.3]heptan-2-yl)pyrazolo[1,5-α]pyridine-3-carboxamide], the IC50 at ROCK2 is 5.1 to 15 nM.

For the compound `Cc1nc(N2CCC(F)(F)C2)sc1C(=O)NC1CC2(C1)CC(c1n[nH]c(=O)c3ccccc13)C2` [Example 41, 2-(3,3-difluoropyrrolidin-1-yl)-4-methyl-N-[(aR)-6-(4-oxo-3,4-dihydrophthalazin-1-yl)spiro[3.3]heptan-2-yl]-1,3-thiazole-5-carboxamide], the IC50 at ROCK2 is 2.01 to 5 nM.

In the case of `COc1ccc2c(c1)CCN2C(=O)NC1CC2(C1)CC(c1n[nH]c(=O)c3ccccc13)C2` [Example 258, 5-methoxy-N-((aR)-6-(4-oxo-3,4-dihydrophthalazin-1-yl)spiro[3.3]heptan-2-yl)indoline-1-carboxamide], at ROCK2, the IC50 is 5.1 to 15 nM.

Consider `CC(C)(O)c1ccc2c(C(=O)N[C@H]3CC4(C3)C[C@H](c3n[nH]c(=O)c5ccccc53)C4)cnn2c1` (stereo partly drawn) [Example 215, 6-(2-hydroxypropan-2-yl)-N-((aR)-6-(4-oxo-3,4-dihydrophthalazin-1-yl)spiro[3.3]heptan-2-yl)pyrazolo[1,5-a]pyridine-3-carboxamide], for which the IC50 at ROCK2 lay within 5.1 to 15 nM.

In the case of `CC(C)(O)Cn1nc(C(=O)NC2CC3(C2)CC(c2n[nH]c(=O)c4ccccc24)C3)c2ccc(-c3ccc(Cl)cc3)cc21` (centres unmarked) [Example 144, 6-(4-chlorophenyl)-1-(2-hydroxy-2-methylpropyl)-N-((αR)-6-(4-oxo-3,4-dihydrophthalazin-1-yl)spiro[3.3]heptan-2-yl)-1H-indazole-3-carboxamide], the IC50 on ROCK2 was in the range of 5.1 to 15 nM.

For `[H][C@]1(c2n[nH]c(=O)c3ccccc32)C[C@]2(C[C@@H](NC(=O)c3cnc4c(C)cc(F)cn34)C2)C1` (stereo partly drawn) [Example 405, 6-fluoro-8-methyl-N-((aR)-6-(4-oxo-3,4-dihydrophthalazin-1-yl)spiro[3.3]heptan-2-yl)imidazo[1,2-a]pyridine-3-carboxamide], the IC50 on ROCK2 fell in the range of 0.2 to 2 nM.

In the case of `[H][C@]1(c2n[nH]c(=O)c3ccccc32)C[C@]2(C[C@@H](NC(=O)c3ccc4cn[nH]c4c3)C2)C1` (stereo partly drawn) [Example 316, N-((aR)-6-(4-oxo-3,4-dihydrophthalazin-1-yl)spiro[3.3]heptan-2-yl)-1H-indazole-6-carboxamide], the IC50 at ROCK2 was in the range of 5.1 to 15 nM.
